Measurements: patent US12617783B2, “Heterocyclic GLP-1R agonists” (BIOMEA FUSION, INC., priority 2024, dated 2026)

Biological target: T1, human GLP-1R (Homo sapiens, UniProt P43220)
T1 construct: host or cells: HEK293
Assay: GLP-1R cAMP assay (Example B1a, HTRF, 30 min at room temperature)
Type: cell-based
Settings: Table 1d, stereoisomer pairs; read-out: EC50
Procedure, shortened: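 Competitive HTRF read-out of cAMP after 30 min room-temperature stimulation, BETP absent, of human GLP-1R-HEK293 cells (1,000/well) in HEPES buffer with 500 μM IBMX and 0.1% BSA. Activation normalised to GLP-1(7-37) positive control. EC50 from 4-parameter non-linear regression.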

T1 sequence (P43220 24-463): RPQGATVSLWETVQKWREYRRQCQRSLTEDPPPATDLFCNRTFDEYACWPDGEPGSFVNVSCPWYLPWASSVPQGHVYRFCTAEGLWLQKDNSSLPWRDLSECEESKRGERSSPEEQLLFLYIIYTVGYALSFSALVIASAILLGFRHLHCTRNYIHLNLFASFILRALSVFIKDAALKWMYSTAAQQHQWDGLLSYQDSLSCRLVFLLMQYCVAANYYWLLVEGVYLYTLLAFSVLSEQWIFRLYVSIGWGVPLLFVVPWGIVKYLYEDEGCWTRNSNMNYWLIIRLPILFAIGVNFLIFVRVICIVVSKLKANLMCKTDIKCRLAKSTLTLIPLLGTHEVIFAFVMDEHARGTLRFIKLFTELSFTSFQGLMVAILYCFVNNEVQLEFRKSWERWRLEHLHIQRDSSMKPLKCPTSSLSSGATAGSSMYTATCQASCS

| SMILES | EC50 [nM] |
| --- | --- |
| Cc1cc(-n2nc3c(c2-n2ccn(-c4ccc5c(cnn5C)c4F)c2=O)[C@H]2CC[C@@H](C3)N2C(=O)c2cc3cc([C@H]4CCOC5(CC5)C4)ccc3n2[C@@]2(c3noc(=O)[nH]3)C[C@@H]2C)cc(C)c1F [Compound 411, 3-((1S,2S)-1-(2-((4R,7S)-3-(3-(4-fluoro-1-methyl-1H-indazol-5-yl)-2-oxo-2,3-dihydro-1H-imidazol-1-yl)-2-(4-fluoro-3,5-dimethylphenyl)-2,4,5,6,7,8-hexahydro-4,7-epiminocyclohepta [c]pyrazole-9-carbonyl)-5-((S)-4-oxaspiro[2.5]octan-7-yl)-1H-indol-1-yl)-2-methylcyclopropyl)-1,2,4-oxadiazol-5 (4H)-one] | 652 |

Same assay, conditions: cAMP accumulation in HEK293 expressing human GLP-1R, no BETP, 30 min room temperature (Method B1a, compounds ID 1-609), Table 1; read-out: EC50

| SMILES | EC50 [nM] |
| --- | --- |
| Cc1cc(-n2nc3c(c2-n2ccn(-c4ccc5c(cnn5C)c4F)c2=O)[C@H]2CC[C@@H](C3)N2C(=O)c2cc3cc([C@H]4CCOC5(CC5)C4)ccc3n2[C@@]2(c3noc(=O)[nH]3)C[C@@H]2C)cc(C)c1F [Compound 411, 3-((1S,2S)-1-(2-((4R,7S)-3-(3-(4-fluoro-1-methyl-1H-indazol-5-yl)-2-oxo-2,3-dihydro-1H-imidazol-1-yl)-2-(4-fluoro-3,5-dimethylphenyl)-2,4,5,6,7,8-hexahydro-4,7-epiminocyclohepta [c]pyrazole-9-carbonyl)-5-((S)-4-oxaspiro[2.5]octan-7-yl)-1H-indol-1-yl)-2-methylcyclopropyl)-1,2,4-oxadiazol-5 (4H)-one] | 652 |
| Cc1cc(-n2nc3c(c2-n2ccn(-c4ccc(C(N)=O)c(F)c4)c2=O)[C@@H]2CC[C@H](C3)N2C(=O)c2cc3cc([C@H]4CCOC(C)(C)C4)ccc3n2[C@@]2(c3noc(=O)[nH]3)C[C@@H]2C)cc(C)c1F [Compound 412, 4-[3-[(1S,8R)-11-[5-[(4S)-2,2-dimethyltetrahydropyran-4-yl]-1-[(1S,2S)-2-methyl-1-(5-oxo-4H-1,2,4-oxadiazol-3-yl)cyclopropyl]indole-2-carbonyl]-4-(4-fluoro-3,5-dimethyl-phenyl)-4,5,11-triazatricyclo[6.2.1.02,6]undeca-2,5-dien-3-yl]-2-oxo-imidazol-1-yl]-2-fluoro-benzamide] | 551 |
| Cc1cc(-n2nc3c(c2-n2ccn(-c4ccc5c(cnn5C)c4F)c2=O)[C@@H]2CC[C@H](C3)N2C(=O)c2cc3cc(C4CCOC4(C)C)ccc3n2[C@@]2(c3noc(=O)[nH]3)C[C@@H]2C)cc(C)c1F (stereo partly drawn) [Compound 413, 3-[(1S,2S)-1-[5-(2,2-dimethyltetrahydrofuran-3-yl)-2-[(1S,8R)-4-(4-fluoro-3,5-dimethyl-phenyl)-3-[3-(4-fluoro-1-methyl-indazol-5-yl)-2-oxo-imidazol-1-yl]-4,5,11-triazatricyclo[6.2.1.02,6]undeca-2,5-diene-11-carbonyl]indol-1-yl]-2-methyl-cyclopropyl]-4H-1,2,4-oxadiazol-5-one] | 1770 |
| Cc1cc(-n2nc3c(c2-n2ccn(-c4ccc5c(cnn5C)c4F)c2=O)[C@H]2CC[C@@H](C3)N2C(=O)c2cc3cc([C@@H]4CCOC5(CC5)C4)ccc3n2[C@@]2(c3noc(=O)[nH]3)C[C@@H]2C)cc(C)c1F [Compound 414, 3-((1S,2S)-1-(2-((4R,7S)-3-(3-(4-fluoro-1-methyl-1H-indazol-5-yl)-2-oxo-2,3-dihydro-1H-imidazol-1-yl)-2-(4-fluoro-3,5-dimethylphenyl)-2,4,5,6,7,8-hexahydro-4,7-epiminocyclohepta [c]pyrazole-9-carbonyl)-5-((R)-4-oxaspiro[2.5]octan-7-yl)-1H-indol-1-yl)-2-methylcyclopropyl)-1,2,4-oxadiazol-5 (4H)-one] | ≥ 10000 |
| Cc1cc(-n2nc3c(c2-n2ccn(-c4ccc5c(cnn5C)c4F)c2=O)[C@@H]2CC[C@H](C3)N2C(=O)c2cc3cc(C4CCOC5(CCC5)C4)ccc3n2[C@@]2(c3noc(=O)[nH]3)C[C@@H]2C)cc(C)c1F (stereo partly drawn) [Compound 415, 3-((1S,2S)-1-(2-((4S,7R)-3-(3-(4-fluoro-1-methyl-1H-indazol-5-yl)-2-oxo-2,3-dihydro-1H-imidazol-1-yl)-2-(4-fluoro-3,5-dimethylphenyl)-2,4,5,6,7,8-hexahydro-4,7-epiminocyclohepta [c]pyrazole-9-carbonyl)-5-(5-oxaspiro[3.5]nonan-8-yl)-1H-indol-1-yl)-2-methylcyclopropyl)-1,2,4-oxadiazol-5 (4H)-one] | 361 |
| Cc1cc(-n2nc3c(c2-n2ccn(-c4ccc5c(cnn5C)c4F)c2=O)CN(C(=O)c2cc4cc([C@H]5CCOC(C)(C)C5)ccc4n2[C@@]2(c4noc(=O)[nH]4)C[C@@H]2C)CCC3)cc(C)c1F [Compound 416, 3-((1S,2S)-1-(5-((S)-2,2-dimethyltetrahydro-2H-pyran-4-yl)-2-(3-(3-(4-fluoro-1-methyl-1H-indazol-5-yl)-2-oxo-2,3-dihydro-1H-imidazol-1-yl)-2-(4-fluoro-3,5-dimethylphenyl)-2,4,5,6,7,8-hexahydropyrazolo[4,3-c]azepine-5-carbonyl)-1H-indol-1-yl)-2-methylcyclopropyl)-1,2,4-oxadiazol-5(4H)-one] | 162 |
| Cc1cc(-n2nc3c(c2-n2ccn(-c4ccc5c(cnn5C)c4F)c2=O)[C@@H]2CC[C@H](C3)N2Cc2cc3cc([C@H]4CCOC(C)(C)C4)ccc3n2[C@@]2(c3noc(=O)[nH]3)C[C@@H]2C)cc(C)c1F [Compound 417, 3-((1S,2S)-1-(5-((S)-2,2-dimethyltetrahydro-2H-pyran-4-yl)-2-(((4S,7R)-3-(3-(4-fluoro-1-methyl-1H-indazol-5-yl)-2-oxo-2,3-dihydro-1H-imidazol-1-yl)-2-(4-fluoro-3,5-dimethylphenyl)-2,4,5,6,7,8-hexahydro-4,7-epiminocyclohepta [c]pyrazol-9-yl)methyl)-1H-indol-1-yl)-2-methylcyclopropyl)-1,2,4-oxadiazol-5(4H)-one] | 110 |
| Cc1cc(-n2nc3c(c2-n2ccn(-c4ccc5c(cnn5C)c4F)c2=O)[C@@H]2CC[C@H](C3)N2C(=O)c2cc3cc(C4COC(C)(C)C4)ccc3n2[C@@]2(c3noc(=O)[nH]3)C[C@@H]2C)cc(C)c1F (stereo partly drawn) [Compound 418, 3-[(1S,2S)-1-[5-(5,5-dimethyltetrahydrofuran-3-yl)-2-[(1S,8R)-4-(4-fluoro-3,5-dimethyl-phenyl)-3-[3-(4-fluoro-1-methyl-indazol-5-yl)-2-oxo-imidazol-1-yl]-4,5,11-triazatricyclo[6.2.1.02,6]undeca-2,5-diene-11-carbonyl]indol-1-yl]-2-methyl-cyclopropyl]-4H-1,2,4-oxadiazol-5-one] | 836 |
| Cc1cc(-n2nc3c(c2-n2ccn(-c4ccc5c(cnn5C)c4F)c2=O)[C@@H]2CC[C@H](C3)N2C(=O)c2cc3cc([C@H]4CCOC4(C)C)ccc3n2[C@@]2(c3noc(=O)[nH]3)C[C@@H]2C)cc(C)c1F [Compound 419, 3-[(1S,2S)-1-[5-[(3R)-2,2-dimethyltetrahydrofuran-3-yl]-2-[(1S,8R)-4-(4-fluoro-3,5-dimethyl-phenyl)-3-[3-(4-fluoro-1-methyl-indazol-5-yl)-2-oxo-imidazol-1-yl]-4,5,11-triazatricyclo[6.2.1.02,6]undeca-2,5-diene-11-carbonyl]indol-1-yl]-2-methyl-cyclopropyl]-4H-1,2,4-oxadiazol-5-one] | ≥ 10000 |
| Cc1cc(-n2nc3c(c2-n2ccn(-c4ccc5c(cnn5C)c4F)c2=O)[C@@H]2CC[C@H](C3)N2C(=O)c2cc3cc([C@@H]4CCOC4(C)C)ccc3n2[C@@]2(c3noc(=O)[nH]3)C[C@@H]2C)cc(C)c1F [Compound 420, 3-[(1S,2S)-1-[5-[(3S)-2,2-dimethyltetrahydrofuran-3-yl]-2-[(1S,8R)-4-(4-fluoro-3,5-dimethyl-phenyl)-3-[3-(4-fluoro-1-methyl-indazol-5-yl)-2-oxo-imidazol-1-yl]-4,5,11-triazatricyclo[6.2.1.02,6]undeca-2,5-diene-11-carbonyl]indol-1-yl]-2-methyl-cyclopropyl]-4H-1,2,4-oxadiazol-5-one] | 650 |

Same assay, conditions: text to Table 1d, bridge atoms configured out of the plane or toward the reader

| SMILES | potency |
| --- | --- |
| Cc1cc(-n2nc3c(c2-n2ccn(-c4ccc5c(cnn5C)c4F)c2=O)[C@H]2CC[C@@H](C3)N2C(=O)c2cc3cc([C@H]4CCOC5(CC5)C4)ccc3n2[C@@]2(c3noc(=O)[nH]3)C[C@@H]2C)cc(C)c1F [Compound 411, 3-((1S,2S)-1-(2-((4R,7S)-3-(3-(4-fluoro-1-methyl-1H-indazol-5-yl)-2-oxo-2,3-dihydro-1H-imidazol-1-yl)-2-(4-fluoro-3,5-dimethylphenyl)-2,4,5,6,7,8-hexahydro-4,7-epiminocyclohepta [c]pyrazole-9-carbonyl)-5-((S)-4-oxaspiro[2.5]octan-7-yl)-1H-indol-1-yl)-2-methylcyclopropyl)-1,2,4-oxadiazol-5 (4H)-one] | little or no potency |
